Laboratory results taken from US10118916B2, “Modulators of cystic fibrosis transmembrane conductance regulator protein” (AbbVie S.à.r.l., priority 2016, dated 2018).

Assays:
F508delCFTR = target: T1, F508delCFTR (Homo sapiens, UniProt P13569, DEL508-508); test: Cell Surface Expression-Horse Radish Peroxidase (CSE-HRP) assay; type: cell-based; conditions: CFBE41o-F508delCFTR-HRP cells; for EC50: F508delCFTR cell surface expression, luminescence, 18-24 hours at 33° C., highest concentration 20 μM; for Maximum % activity: maximum at any tested concentration, normalized to on-plate positive control (3 μM)
T1 construct: expressed in transfected cells; host or cells: CFBE41o- (human lung derived epithelial cell line), doxycycline-inducible
T1 sequence (P13569 with tags, fused parts or gaps DEL508-508): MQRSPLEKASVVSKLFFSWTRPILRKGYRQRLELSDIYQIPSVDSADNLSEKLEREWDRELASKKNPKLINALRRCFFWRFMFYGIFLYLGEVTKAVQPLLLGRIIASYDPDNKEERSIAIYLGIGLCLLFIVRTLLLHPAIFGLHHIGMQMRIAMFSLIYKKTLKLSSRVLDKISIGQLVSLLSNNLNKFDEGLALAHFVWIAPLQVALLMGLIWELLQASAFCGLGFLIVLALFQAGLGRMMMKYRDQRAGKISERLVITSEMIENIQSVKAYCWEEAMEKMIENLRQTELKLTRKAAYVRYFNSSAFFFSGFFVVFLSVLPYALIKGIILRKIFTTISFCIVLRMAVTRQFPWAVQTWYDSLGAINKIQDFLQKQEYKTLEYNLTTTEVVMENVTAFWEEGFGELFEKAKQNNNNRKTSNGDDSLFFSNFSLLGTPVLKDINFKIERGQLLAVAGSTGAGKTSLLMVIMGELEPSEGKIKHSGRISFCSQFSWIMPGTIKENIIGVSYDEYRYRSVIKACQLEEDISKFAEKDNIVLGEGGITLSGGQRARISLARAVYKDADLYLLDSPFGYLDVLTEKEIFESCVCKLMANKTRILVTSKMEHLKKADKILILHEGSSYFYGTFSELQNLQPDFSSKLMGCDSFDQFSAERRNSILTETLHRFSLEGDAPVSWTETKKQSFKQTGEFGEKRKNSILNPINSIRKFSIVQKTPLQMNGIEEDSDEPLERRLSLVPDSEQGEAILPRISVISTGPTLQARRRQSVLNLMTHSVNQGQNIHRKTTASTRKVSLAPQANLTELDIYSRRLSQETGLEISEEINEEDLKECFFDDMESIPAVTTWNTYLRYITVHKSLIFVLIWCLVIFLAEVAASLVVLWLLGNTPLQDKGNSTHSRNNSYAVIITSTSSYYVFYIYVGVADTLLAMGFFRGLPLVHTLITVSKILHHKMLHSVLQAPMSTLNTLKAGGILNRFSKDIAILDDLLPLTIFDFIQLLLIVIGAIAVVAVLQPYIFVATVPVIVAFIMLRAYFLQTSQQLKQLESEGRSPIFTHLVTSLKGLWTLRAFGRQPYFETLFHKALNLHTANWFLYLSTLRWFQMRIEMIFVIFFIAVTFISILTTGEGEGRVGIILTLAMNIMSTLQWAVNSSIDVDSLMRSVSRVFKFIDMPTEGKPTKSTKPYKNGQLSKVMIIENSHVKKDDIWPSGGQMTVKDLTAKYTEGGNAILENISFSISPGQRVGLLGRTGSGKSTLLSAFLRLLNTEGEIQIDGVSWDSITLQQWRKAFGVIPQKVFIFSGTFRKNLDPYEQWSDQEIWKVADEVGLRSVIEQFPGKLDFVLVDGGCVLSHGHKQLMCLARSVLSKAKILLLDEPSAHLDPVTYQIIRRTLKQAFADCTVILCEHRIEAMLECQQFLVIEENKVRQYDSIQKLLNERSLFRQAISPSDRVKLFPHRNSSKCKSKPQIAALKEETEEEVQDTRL
In short: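 CFBE41o- cells expressing doxycycline-induced (0.5 μg/mL, 72 h at 37 °C) F508delCFTR with HRP in the fourth extracellular loop; compounds 8 points, 3-fold from 20 μM, 18-24 h at 33 °C. Surface HRP measured by luminol luminescence, normalised to DMSO and 3 μM reference corrector; EC50 from variable-slope sigmoidal fit of triplicate plates.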

F508del/F508del CFTR = target: T2, F508del/F508del CFTR (Homo sapiens, UniProt P13569, DEL508-508); test: Transepithelial Clamp Circuit (TECC-24) conductance assay on primary human bronchial epithelial cells (hBE-TECC); type: cell-based; conditions: for EC50: equivalent short circuit current, 18-24 hours at 37° C., with control potentiator; for Maximum % activity: relative to positive control (3 μM) coupled with control potentiator
T2 construct: cells isolated from CF patients with the homozygous mutation; endogenous in cells; host or cells: primary human bronchial epithelial (hBE) cells from F508del/F508del CF patients
T2 sequence (P13569 with tags, fused parts or gaps DEL508-508): as above
Description: Transepithelial Clamp Circuit on Human Bronchial Epithelial Cells Conductance Assay:
A cell based assay using the primary human bronchial epithelial cells (hBE) was used as a secondary assay to test novel F508delCFTR correctors for their activity on primary hBE cells with F508del/F508del CFTR mutation. The assay used a TECC-24 (Transepithelial Clamp Circuit for 24 wells) instrument that measures the functionality of the mutated channel by measuring the equivalent short circuit current (Ieq) generated by the polarized epithelial cells. The instrument works by measuring the transepithelial potential difference (Vt) and transepithelial resistance (Rt) in an open circuit format, and the Ieq is calculated by using Ohms law (Ieq=Vt/Rt). The assay was run in a 24-well format and all 24-wells were measured at the same time point giving a higher throughput for this assay.
Primary human bronchial epithelial (hBE) cells from F508del/F508delCFTR patients were expanded from 1×10^6 to 250×10^6 cells (Neuberger T, Burton B, Clark H and VanGoor F; Cystic Fibrosis, Methods in Mole Biol 741; eds. Amaral M D and Kunzelmann K, 2011). For this purpose, cells isolated from CF patients with the homozygous mutation were seeded onto 24 well Corning (Cat #3378) filter plates that were coated with 3T3 conditioned media and grown at an air-liquid interface for 35 days using an Ultroser® G supplemented differentiation media. Apical surface mucus was removed 72 hours before the experiment using 3 mM dithiothreitol (DTT) in phosphate buffered saline (PBS). The apical surface was washed again 24 hours before the experiment using PBS. The cells were incubated with the desired dose response of the corrector compounds 18-24 hours at 37° C., 5% CO2. The corrector compounds are only added on the basolateral side of the epithelial cells.
On the day of measuring the corrector activity on the TECC, the cells were switched into a bicarbonate and serum free F-12 Coon's medium and allowed to equilibrate for 30 minutes in a CO2 free incubator. At the time of measurement, the apical and basolateral sides of the filter were bathed with the F-12 Coon's modification media (with 20 mM 4-(2-hydroxyethyl)-1-piperazineethanesulfonic acid (HEPES), pH 7.4 (using 1 M tris(hydroxymethyl)aminomethane (Tris)), and the measurements were made at 36.5° C. Transepithelial voltage (Vt) and transepithelial resistance (Rt) were measured using a 24 channel transepithelial current clamp (TECC-24). Current responses to the sequential addition of benzamil (apical 6 μM addition; for inhibiting epithelial ENaC channel), forskolin (apical and basolateral 10 μM addition; for activating the CFTR channel), control potentiator (N-(3-carbamoyl-5,5,7,7-tetramethyl-4,7-dihydro-5H-thieno[2,3-c]pyran-2-yl)-1H-pyrazole-5-carboxamide; apical and basolateral 1 μM addition; for potentiating the CFTR channel) and bumetanide (basolateral 20 μM addition; for inhibiting the Na:2Cl:K co-transporter, an indirect measure of inhibiting the Cl— secretion driven by CFTR channel) were measured.
All plates contained negative controls (dimethyl sulfoxide, DMSO) which coupled with the control potentiator (N-(3-carbamoyl-5,5,7,7-tetramethyl-4,7-dihydro-5H-thieno[2,3-c]pyran-2-yl)-1H-pyrazole-5-carboxamide) sets the null response and positive controls (3 μM of 3-[(2R,4R)-4-({[1-(2,2-difluoro-1,3-benzodioxol-5-yl)cyclopropyl]carbonyl}amino)-7-methoxy-3,4-dihydro-2H-chromen-2-yl]benzoic acid) coupled with the control potentiator sets the 100% response to measure the correction of the mutated CFTR channel. The maximum percent activity is reported relative to the positive control value.
The % activity measured at each of the 6 test concentrations of the test compound was normalized to the on-plate positive control using the following formula: % activity=[(test compound response−DMSO response)/(positive control response−DMSO response)]*100 […]

Row | SMILES | EC50 (F508delCFTR) [nM] | Maximum % activity (F508delCFTR) [%] | EC50 (F508del/F508del CFTR) [nM] | Maximum % activity (F508del/F508del CFTR) [%]
1 | O=C(N[C@@H]1C[C@H]([C@H]2CC[C@@H](C(=O)O)CC2)Oc2cc(OC(F)F)ccc21)C1(c2ccc3c(c2)OC(F)(F)O3)CC1 [Example 15A, cis-4-[(2R,4R)-4-{[1-(2,2-difluoro-2H-1,3-benzodioxol-5-yl)cyclopropane-1-carbonyl]amino}-7-(difluoromethoxy)-3,4-dihydro-2H-1-benzopyran-2-yl]cyclohexane-1-carboxylic acid] | 530 | 94.7 | 573 | 92.0
2 | COc1ccc(C(C)(C)C(=O)N[C@@H]2C[C@H](c3ccc(C(=O)O)cc3)Oc3cc(OC)ccc32)c(F)c1 [Example 117, 4-{(2R,4R)-4-[2-(2-fluoro-4-methoxyphenyl)-2-methylpropanamido]-7-methoxy-3,4-dihydro-2H-1-benzopyran-2-yl}benzoic acid] | 350 | 47.0 |  | 
3 | COc1ccc2c(c1)O[C@@H](c1ccc(C(=O)O)cc1)C[C@H]2NC(=O)C(C)(C)Oc1ccc(F)cc1 [Example 118, 4-{(2R,4R)-4-[2-(4-fluorophenoxy)-2-methylpropanamido]-7-methoxy-3,4-dihydro-2H-1-benzopyran-2-yl}benzoic acid] | > 20000 | 16.3 |  | 
4 | COc1ccc2c(c1)O[C@@H](c1ccc(C(=O)O)cc1)C[C@H]2NC(=O)C(C)(C)Oc1ccc(Cl)cc1 [Example 119, 4-{(2R,4R)-4-[2-(4-chlorophenoxy)-2-methylpropanamido]-7-methoxy-3,4-dihydro-2H-1-benzopyran-2-yl}benzoic acid] | 2980 | 27.4 |  | 
5 | COc1ccc2c(c1)O[C@@H](c1cccc(C(=O)O)c1)C[C@H]2NC(=O)C1(C)CCc2cc(C)ccc21 (stereo partly drawn) [Example 122, 3-{(2R,4R)-4-[(1,5-dimethyl-2,3-dihydro-1H-indene-1-carbonyl)amino]-7-methoxy-3,4-dihydro-2H-1-benzopyran-2-yl}benzoic acid] | 310 | 86.2 |  | 
6 | COC(=O)c1ccc([C@H]2C[C@@H](NC(=O)C3(C)CCc4cc(C)ccc43)c3ccc(OC)cc3O2)cc1 (stereo partly drawn) [Example 124, methyl 4-{(2R,4R)-4-[(1,5-dimethyl-2,3-dihydro-1H-indene-1-carbonyl)amino]-7-methoxy-3,4-dihydro-2H-1-benzopyran-2-yl}benzoate] | 460 | 87.7 |  | 

Next, values leading:

Row | EC50 (F508delCFTR) [nM] | Maximum % activity (F508delCFTR) [%] | EC50 (F508del/F508del CFTR) [nM] | Maximum % activity (F508del/F508del CFTR) [%] | SMILES
7 | 100 | 91.3 | 24 | 85.6 | COc1ccc2c(c1)O[C@@H](c1cccc(C(=O)O)c1)C[C@H]2NC(=O)[C@@]1(C)CCc2cc(C)ccc21 (single isomer, unassigned) [Example 8]
8 | 310 | 124.5 | 21 | 104.3 | COc1ccc2c(c1)O[C@@H]([C@H]1CC[C@H](C(=O)O)CC1)C[C@H]2NC(=O)C1(c2ccc3c(c2)OC(F)(F)O3)CC1 [Example 11, trans-4-[(2R,4R)-4-{[1-(2,2-difluoro-2H-1,3-benzodioxol-5-yl)cyclopropane-1-carbonyl]amino}-7-methoxy-3,4-dihydro-2H-1-benzopyran-2-yl]cyclohexane-1-carboxylic acid]
9 | 30 | 124.0 | 4 | 117.5 | O=C(N[C@@H]1C[C@H]([C@H]2CC[C@H](C(=O)O)CC2)Oc2cc(OC(F)(F)F)ccc21)C1(c2ccc3c(c2)OC(F)(F)O3)CC1 [Example 13, trans-4-[(2R,4R)-4-{[1-(2,2-difluoro-2H-1,3-benzodioxol-5-yl)cyclopropane-1-carbonyl]amino}-7-(trifluoromethoxy)-3,4-dihydro-2H-1-benzopyran-2-yl]cyclohexane-1-carboxylic acid]
10 | 110 | 125.5 | 30 | 109.6 | O=C(N[C@@H]1C[C@H]([C@H]2CC[C@H](C(=O)O)CC2)Oc2cc(OC(F)F)ccc21)C1(c2ccc3c(c2)OC(F)(F)O3)CC1 [Example 15B, trans-4-[(2R,4R)-4-{[1-(2,2-difluoro-2H-1,3-benzodioxol-5-yl)cyclopropane-1-carbonyl]amino}-7-(difluoromethoxy)-3,4-dihydro-2H-1-benzopyran-2-yl]cyclohexane-1-carboxylic acid]
11 | 50 | 73.9 |  |  | COc1ccc2c(c1)O[C@@H](c1ccc(C(=O)O)cc1)C[C@H]2NC(=O)C(C)(C)c1ccc2c(c1)OCO2 [Example 120, 4-{(2R,4R)-4-[2-(2H-1,3-benzodioxol-5-yl)-2-methylpropanamido]-7-methoxy-3,4-dihydro-2H-1-benzopyran-2-yl}benzoic acid]
12 | 70 | 49.6 |  |  | COc1ccc(C(C)(C)C(=O)N[C@@H]2C[C@H](c3ccc(C(=O)O)cc3)Oc3cc(OC)ccc32)cc1 [Example 121, 4-{(2R,4R)-7-methoxy-4-[2-(4-methoxyphenyl)-2-methylpropanamido]-3,4-dihydro-2H-1-benzopyran-2-yl}benzoic acid]
